Where “and” joins values, the source holds several entries; their conditions need not be identical. Equal values may be shown once. Where a name gives a salt, the structure may show the parent alone. Read-outs that look alike come from different tables or passages of the source.
What was measured:
[1] = cited from earlier work; for CL/F (total clearance): humans n=10 male
[2] = loading doses up to 150 mg IV, postoperative; cited from earlier work
[3] = after oral administration; cited from earlier work
[4] = Example 1: multiple-dose randomized 3-way crossover PK study of two IV tramadol regimens vs 100 mg oral q6h; details: for theoretical accumulation factor: 1/[1-exp(−ln 2*tau/T1/2)], T1/2 approximately […]
Experimental: A fitted curve was obtained because the second oral peak was not measured in the study. For the modeling portion of the analysis, a validated Phoenix® WinNonlin® program version 6.4 (Certara) was used for PK analysis, simulation, graphics, tables and statistical calculations. […] For purposes of nonlinear regression, the data were weighted as 1/observed. Predicted concentration-time data were calculated based on the individual fitted PK parameters.

[5] = human, plasma, iv, 50 mg, plasma concentration, Mean, 50 mg IV Dose (h 0, 2, 4, then q4h to h 44), Time […]

COc1cccc([C@]2(O)CCCC[C@H]2CN(C)C)c1 (racemic) [Tramadol, (±)cis-2-[(dimethylamino)methyl]-1-(3-methoxyphenyl) cyclohexanol hydrochloride]
absolute bioavailability of the oral dose ([1]; 100 mg PO vs IV, based on AUC values, hydrochloride): 68±13% and 68%
first pass metabolism ([1]; 100 mg PO, estimated): ~20%
estimated absorption of the oral dose ([1]; 100 mg PO): 86-88%
CL/F (total clearance) ([1]; 100 mg i.v., hydrochloride): 467 ± 124 mL/min
CL/F (total clearance) ([1]; 100 mg i.v., listed as tramadol, hydrochloride): 710 ± 174 mL/min
time to peak serum concentration (tmax) ([1]; 100 mg oral dosing): approximately 2 hours
CL/F (total clearance) ([1]; 100 mg p.o., hydrochloride): 710 ± 174 mL/min
CL/F (total clearance) ([1]; 100 mg p.o., listed as tramadol, hydrochloride): 467 ± 124 mL/min
serious adverse effects [2]: not associated with any serious adverse effects
fertility or teratogenic effects [3]: no safety concerns
predicted exposure over 12 h at steady state ([4]; 50 mg IV q4h, 3 x AUCtau n): 6684 ng·h/mL
RAC(trough) ([4]; 50 mg IV regimen (h 0, 2, 4, then q4h to h 44), mean): 2.1937
Css ([4]; 50 mg IV regimen (h 0, 2, 4, then q4h to h 44), plasma, mean): 557 ng/mL
predicted exposure over 12 h at steady state ([4]; 75 mg IV q6h, 2 x AUCtau n): 6072 ng·h/mL
RAC(trough) ([4]; 75 mg IV regimen (h 0, 3, 6, then q6h to h 42), mean): 1.5026
Css ([4]; 75 mg IV regimen (h 0, 3, 6, then q6h to h 42), plasma, mean): 506 ng/mL
AUC24-48 ([4]; 75 mg IV regimen (h 0, 3, 6, then q6h to h 42), plasma, mean, hydrochloride): 9402 ng·h/mL
predicted exposure over 12 h at steady state ([4]; 100 mg PO q6h, 2 x AUCtau n): 6950 ng·h/mL
RAC(trough) ([4]; 100 mg oral q6h to h 42, mean): 2.5580
Css ([4]; 100 mg oral q6h to h 42, plasma, mean): 579 ng/mL
theoretical accumulation factor ([4]; 4-h dosing interval): 2.42
theoretical accumulation factor ([4]; 6-h dosing interval): 1.82
AUC(0-t) ([4]; human, plasma, iv, 50 mg, AUC0-24, 50 mg IV regimen (h 0, 2, 4, then q4h to h 44), plasma, mean): 9520 ng·h/mL
AUC(0-t) ([4]; human, plasma, iv, 50 mg, AUC0-48, 50 mg IV regimen (h 0, 2, 4, then q4h to h 44), plasma, mean): 20500 ng·h/mL
AUC ([4]; human, plasma, iv, 50 mg, AUC24-48, 50 mg IV regimen (h 0, 2, 4, then q4h to h 44), plasma, mean): 11000 ng·h/mL
AUC ([4]; human, plasma, iv, 50 mg, AUCtau 1, 50 mg IV regimen (h 0, 2, 4, then q4h to h 44), first dosing interval, mean): 624 ng·h/mL
AUC ([4]; human, plasma, iv, 50 mg, AUCtau n, 50 mg IV regimen (h 0, 2, 4, then q4h to h 44), last dosing interval, mean): 2230 ng·h/mL
concentration at 2 h ([4]; human, plasma, iv, 50 mg, C2, 50 mg IV regimen (h 0, 2, 4, then q4h to h 44), plasma, mean): 203 ng/mL
concentration at 48 h ([4]; human, plasma, iv, 50 mg, C48 (T48), 50 mg IV regimen (h 0, 2, 4, then q4h to h 44), plasma, mean): 448 ng/mL
concentration at 1 h ([4]; human, plasma, iv, 50 mg, C1 h, 50 mg IV regimen (h 0, 2, 4, then q4h to h 44), plasma, mean): 243 ng/mL
Cmax ([4]; human, plasma, iv, 50 mg, Cmax(0-2), 50 mg IV regimen (h 0, 2, 4, then q4h to h 44), first dose, plasma, mean): 294 ng/mL
Cmax ([4]; human, plasma, iv, 50 mg, Cmax(2-4), 50 mg IV regimen (h 0, 2, 4, then q4h to h 44), plasma, mean): 479 ng/mL
Cmax ([4]; human, plasma, iv, 50 mg, Cmax(44-48), 50 mg IV regimen (h 0, 2, 4, then q4h to h 44), steady-state, plasma, mean): 711 ng/mL
Cmax ([4]; human, plasma, iv, 50 mg, Cmax, 50 mg IV regimen (h 0, 2, 4, then q4h to h 44), plasma, mean): 736 ng/mL
Tmax ([4]; human, plasma, iv, 50 mg, Tmax(0-2), 50 mg IV regimen (h 0, 2, 4, then q4h to h 44), plasma, mean): 0.54 h
Tmax ([4]; human, plasma, iv, 50 mg, Tmax(2-4), 50 mg IV regimen (h 0, 2, 4, then q4h to h 44), plasma, mean): 2.36 h
Tmax ([4]; human, plasma, iv, 50 mg, Tmax(44-48), 50 mg IV regimen (h 0, 2, 4, then q4h to h 44), plasma, mean): 44.3 h
Tmax ([4]; human, plasma, iv, 50 mg, Tmax, 50 mg IV regimen (h 0, 2, 4, then q4h to h 44), plasma, mean): 30 h
concentration at 0 h ([4]; human, plasma, iv, 50 mg, plasma concentration, Mean, 50 mg IV Dose (h 0, 2, 4, then q4h to h 44), Time 0.00 hr): 0.726 ng/mL
concentration at 0.25 h ([4]; human, plasma, iv, 50 mg, plasma concentration, Mean, 50 mg IV Dose (h 0, 2, 4, then q4h to h 44), Time 0.250 hr): 253 ng/mL
concentration at 0.5 h ([4]; human, plasma, iv, 50 mg, plasma concentration, Mean, 50 mg IV Dose (h 0, 2, 4, then q4h to h 44), Time 0.500 hr): 261 ng/mL
concentration at 0.75 h ([4]; human, plasma, iv, 50 mg, plasma concentration, Mean, 50 mg IV Dose (h 0, 2, 4, then q4h to h 44), Time 0.750 hr): 243 ng/mL
concentration at 1 h ([4]; human, plasma, iv, 50 mg, plasma concentration, Mean, 50 mg IV Dose (h 0, 2, 4, then q4h to h 44), Time 1.00 hr): 231 ng/mL
concentration at 2 h ([4]; human, plasma, iv, 50 mg, plasma concentration, Mean, 50 mg IV Dose (h 0, 2, 4, then q4h to h 44), Time 2.00 hr): 188 ng/mL
concentration at 2.5 h ([4]; human, plasma, iv, 50 mg, plasma concentration, Mean, 50 mg IV Dose (h 0, 2, 4, then q4h to h 44), Time 2.50 hr): 442 ng/mL
concentration at 4 h ([4]; human, plasma, iv, 50 mg, plasma concentration, Mean, 50 mg IV Dose (h 0, 2, 4, then q4h to h 44), Time 4.00 hr): 335 ng/mL
concentration at 4.25 h ([4]; human, plasma, iv, 50 mg, plasma concentration, Mean, 50 mg IV Dose (h 0, 2, 4, then q4h to h 44), Time 4.25 hr): 662 ng/mL
concentration at 4.5 h ([4]; human, plasma, iv, 50 mg, plasma concentration, Mean, 50 mg IV Dose (h 0, 2, 4, then q4h to h 44), Time 4.50 hr): 592 ng/mL
concentration at 5 h ([4]; human, plasma, iv, 50 mg, plasma concentration, Mean, 50 mg IV Dose (h 0, 2, 4, then q4h to h 44), Time 5.00 hr): 527 ng/mL
concentration at 6 h ([4]; human, plasma, iv, 50 mg, plasma concentration, Mean, 50 mg IV Dose (h 0, 2, 4, then q4h to h 44), Time 6.00 hr): 433 ng/mL
concentration at 8 h ([4]; human, plasma, iv, 50 mg, plasma concentration, Mean, 50 mg IV Dose (h 0, 2, 4, then q4h to h 44), Time 8.00 hr): 346 ng/mL
concentration at 12 h ([4]; human, plasma, iv, 50 mg, plasma concentration, Mean, 50 mg IV Dose (h 0, 2, 4, then q4h to h 44), Time 12.0 hr): 353 ng/mL
concentration at 20 h ([4]; human, plasma, iv, 50 mg, plasma concentration, Mean, 50 mg IV Dose (h 0, 2, 4, then q4h to h 44), Time 20.0 hr): 419 ng/mL
concentration at 32 h ([4]; human, plasma, iv, 50 mg, plasma concentration, Mean, 50 mg IV Dose (h 0, 2, 4, then q4h to h 44), Time 32.0 hr): 422 ng/mL
concentration at 40 h ([4]; human, plasma, iv, 50 mg, plasma concentration, Mean, 50 mg IV Dose (h 0, 2, 4, then q4h to h 44), Time 40.0 hr): 424 ng/mL
concentration at 44 h ([4]; human, plasma, iv, 50 mg, plasma concentration, Mean, 50 mg IV Dose (h 0, 2, 4, then q4h to h 44), Time 44.0 hr): 424 ng/mL
concentration at 44.3 h ([4]; human, plasma, iv, 50 mg, plasma concentration, Mean, 50 mg IV Dose (h 0, 2, 4, then q4h to h 44), Time 44.3 hr): 697 ng/mL
concentration at 44.5 h ([4]; human, plasma, iv, 50 mg, plasma concentration, Mean, 50 mg IV Dose (h 0, 2, 4, then q4h to h 44), Time 44.5 hr): 655 ng/mL
concentration at 44.8 h ([4]; human, plasma, iv, 50 mg, plasma concentration, Mean, 50 mg IV Dose (h 0, 2, 4, then q4h to h 44), Time 44.8 hr): 645 ng/mL
concentration at 45 h ([4]; human, plasma, iv, 50 mg, plasma concentration, Mean, 50 mg IV Dose (h 0, 2, 4, then q4h to h 44), Time 45.0 hr): 610 ng/mL
concentration at 45.5 h ([4]; human, plasma, iv, 50 mg, plasma concentration, Mean, 50 mg IV Dose (h 0, 2, 4, then q4h to h 44), Time 45.5 hr): 553 ng/mL
concentration at 46 h ([4]; human, plasma, iv, 50 mg, plasma concentration, Mean, 50 mg IV Dose (h 0, 2, 4, then q4h to h 44), Time 46.0 hr): 528 ng/mL
concentration at 47 h ([4]; human, plasma, iv, 50 mg, plasma concentration, Mean, 50 mg IV Dose (h 0, 2, 4, then q4h to h 44), Time 47.0 hr): 490 ng/mL
concentration at 16 h [4, 5]: 388 ng/mL
concentration at 24 h [4, 5]: 413 ng/mL
concentration at 48 h [4, 5]: 434 ng/mL

Reference: patent US10537521B2 (priority 2016, dated 2020)
